Key:
[1] = target: Dual specificity mitogen-activated protein kinase kinase 4 (Homo sapiens) (UniProt P45985); conditions: Compound concentration 1000.0 nM
[2] = target: Muscarinic acetylcholine receptor M2 (Homo sapiens) (UniProt P08172); conditions: Compound concentration 10.0 uM
[3] = target: Myosin light chain kinase (Homo sapiens) (UniProt Q32MK0); conditions: Compound concentration 1000.0 nM
[4] = target: Muscarinic acetylcholine receptor M3 (Homo sapiens) (UniProt P20309); experiment: M3/HU Eurofins-Panlabs selectivity data (BI); conditions: Compound concentration 10.0 uM
[5] = target: Muscarinic acetylcholine receptor M2 (Homo sapiens) (UniProt P08172); experiment: M2/HU Eurofins-Panlabs selectivity data (BI); conditions: Compound concentration 10.0 uM
[6] = target: T1, Alpha-2A adrenergic receptor (Homo sapiens) (UniProt P08913); experiment: ALPHA2A/H Eurofins-Panlabs selectivity data (BI); conditions: Compound concentration 10.0 uM
T1 sequence (whole entry): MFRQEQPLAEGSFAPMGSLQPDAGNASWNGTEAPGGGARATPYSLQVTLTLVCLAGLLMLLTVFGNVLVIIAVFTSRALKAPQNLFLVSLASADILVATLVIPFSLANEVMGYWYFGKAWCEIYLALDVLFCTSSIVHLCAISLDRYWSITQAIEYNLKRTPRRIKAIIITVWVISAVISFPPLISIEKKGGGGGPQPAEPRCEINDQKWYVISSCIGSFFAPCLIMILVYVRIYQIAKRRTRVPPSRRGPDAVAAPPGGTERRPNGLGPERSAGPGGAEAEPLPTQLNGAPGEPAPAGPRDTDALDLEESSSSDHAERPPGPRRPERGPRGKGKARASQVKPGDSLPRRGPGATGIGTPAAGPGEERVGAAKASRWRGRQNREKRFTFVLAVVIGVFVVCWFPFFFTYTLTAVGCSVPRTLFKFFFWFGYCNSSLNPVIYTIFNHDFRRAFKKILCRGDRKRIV

[7] = target: Sodium-dependent noradrenaline transporter (Homo sapiens) (UniProt P23975); experiment: NETRANS/H Eurofins-Panlabs selectivity data (BI); conditions: Compound concentration 10.0 uM
[8] = target: Beta-1 adrenergic receptor (Homo sapiens, UniProt P08588); experiment: BETA1/HU Eurofins-Panlabs selectivity data (BI); conditions: Compound concentration 10.0 uM
[9] = target: Delta-type opioid receptor (Homo sapiens) (UniProt P41143); experiment: DELTA/HU Eurofins-Panlabs selectivity data (BI); conditions: Compound concentration 10.0 uM
[10] = target: Glutamate NMDA receptor (Rattus norvegicus) (UniProt P35439+Q00959+Q00960+Q00961+Q62645+Q8VHN2+Q9R1M7); experiment: NMDAAGSI/RA Eurofins-Panlabs selectivity data (BI); format: protein-complex assay; conditions: filed as agonist, Compound concentration 10.0 uM
[11] = target: Mu-type opioid receptor (Homo sapiens) (UniProt P35372); experiment: MU/HU Eurofins-Panlabs selectivity data (BI); conditions: Compound concentration 10.0 uM
[12] = target: Gamma-aminobutyric acid receptor subunit alpha-1 (Rattus norvegicus) (UniProt P62813); experiment: GABAACENTR Eurofins-Panlabs selectivity data (BI); conditions: Compound concentration 10.0 uM
[13] = target: Histamine H2 receptor (Homo sapiens) (UniProt P25021); experiment: H2/H Eurofins-Panlabs selectivity data (BI); conditions: Compound concentration 10.0 uM
[14] = target: 3',5'-cyclic-AMP phosphodiesterase 4A (Rattus norvegicus) (UniProt P54748); experiment: ROLIPRAM/R Eurofins-Panlabs selectivity data (BI); conditions: Compound concentration 10.0 uM
Chain of 3',5'-cyclic-AMP phosphodiesterase 4A (Rattus norvegicus) (P54748 whole entry): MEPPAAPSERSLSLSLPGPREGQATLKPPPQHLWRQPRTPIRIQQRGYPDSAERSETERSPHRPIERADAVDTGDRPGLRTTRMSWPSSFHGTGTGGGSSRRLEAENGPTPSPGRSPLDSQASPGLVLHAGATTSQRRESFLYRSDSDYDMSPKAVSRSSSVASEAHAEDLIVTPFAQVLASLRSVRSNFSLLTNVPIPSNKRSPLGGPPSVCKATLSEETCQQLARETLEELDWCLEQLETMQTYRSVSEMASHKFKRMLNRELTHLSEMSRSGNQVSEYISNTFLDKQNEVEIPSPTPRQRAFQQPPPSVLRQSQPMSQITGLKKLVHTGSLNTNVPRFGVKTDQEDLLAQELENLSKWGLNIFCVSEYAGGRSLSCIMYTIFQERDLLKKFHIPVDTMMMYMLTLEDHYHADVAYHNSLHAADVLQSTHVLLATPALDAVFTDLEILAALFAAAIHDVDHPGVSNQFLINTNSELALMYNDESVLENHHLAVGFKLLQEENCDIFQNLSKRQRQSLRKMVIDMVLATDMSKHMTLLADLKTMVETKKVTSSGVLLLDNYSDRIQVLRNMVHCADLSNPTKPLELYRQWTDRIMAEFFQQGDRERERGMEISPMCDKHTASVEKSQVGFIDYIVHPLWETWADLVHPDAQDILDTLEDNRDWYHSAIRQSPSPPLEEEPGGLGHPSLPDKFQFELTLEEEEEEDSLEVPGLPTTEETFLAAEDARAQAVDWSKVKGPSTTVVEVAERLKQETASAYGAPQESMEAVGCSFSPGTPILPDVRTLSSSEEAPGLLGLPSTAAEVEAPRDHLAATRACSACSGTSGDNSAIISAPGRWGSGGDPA

Chain of Muscarinic acetylcholine receptor M2 (Homo sapiens) (P08172 whole entry): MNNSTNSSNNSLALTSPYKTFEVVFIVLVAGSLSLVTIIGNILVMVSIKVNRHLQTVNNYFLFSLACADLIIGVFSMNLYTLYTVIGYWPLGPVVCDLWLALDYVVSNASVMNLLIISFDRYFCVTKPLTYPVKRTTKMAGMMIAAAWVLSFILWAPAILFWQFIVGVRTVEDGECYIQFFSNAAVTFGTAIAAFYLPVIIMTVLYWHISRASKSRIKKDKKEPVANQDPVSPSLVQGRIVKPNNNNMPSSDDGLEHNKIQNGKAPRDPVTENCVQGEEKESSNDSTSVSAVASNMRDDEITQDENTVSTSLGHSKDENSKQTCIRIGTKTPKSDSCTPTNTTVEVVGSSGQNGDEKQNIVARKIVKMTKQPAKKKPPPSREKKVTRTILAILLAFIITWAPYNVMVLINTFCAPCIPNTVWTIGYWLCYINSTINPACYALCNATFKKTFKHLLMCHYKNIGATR
Chain of Histamine H2 receptor (Homo sapiens) (P25021 whole entry): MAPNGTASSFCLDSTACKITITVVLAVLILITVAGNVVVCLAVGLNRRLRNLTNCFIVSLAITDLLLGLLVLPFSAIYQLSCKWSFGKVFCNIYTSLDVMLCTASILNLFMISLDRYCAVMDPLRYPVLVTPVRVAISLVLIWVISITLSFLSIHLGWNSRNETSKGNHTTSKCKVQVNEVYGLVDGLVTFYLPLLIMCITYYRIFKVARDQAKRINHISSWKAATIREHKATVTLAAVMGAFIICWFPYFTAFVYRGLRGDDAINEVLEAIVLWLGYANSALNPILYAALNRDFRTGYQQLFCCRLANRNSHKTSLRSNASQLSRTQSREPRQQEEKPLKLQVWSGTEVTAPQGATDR
Chain of Gamma-aminobutyric acid receptor subunit alpha-1 (Rattus norvegicus) (P62813 whole entry): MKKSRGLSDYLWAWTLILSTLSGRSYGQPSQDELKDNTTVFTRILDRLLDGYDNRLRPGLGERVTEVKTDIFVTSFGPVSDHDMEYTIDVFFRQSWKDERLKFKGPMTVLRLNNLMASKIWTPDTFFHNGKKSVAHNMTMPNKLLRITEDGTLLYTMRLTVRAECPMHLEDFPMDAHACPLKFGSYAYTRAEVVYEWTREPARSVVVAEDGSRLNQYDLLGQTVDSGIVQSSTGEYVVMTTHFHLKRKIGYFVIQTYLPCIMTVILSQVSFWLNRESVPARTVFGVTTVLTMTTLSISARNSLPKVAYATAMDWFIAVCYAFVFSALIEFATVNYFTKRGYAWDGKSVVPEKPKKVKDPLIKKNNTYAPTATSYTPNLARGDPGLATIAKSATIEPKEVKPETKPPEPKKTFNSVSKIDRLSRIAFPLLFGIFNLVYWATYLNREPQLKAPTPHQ
Chain of Myosin light chain kinase (Homo sapiens) (Q32MK0 whole entry): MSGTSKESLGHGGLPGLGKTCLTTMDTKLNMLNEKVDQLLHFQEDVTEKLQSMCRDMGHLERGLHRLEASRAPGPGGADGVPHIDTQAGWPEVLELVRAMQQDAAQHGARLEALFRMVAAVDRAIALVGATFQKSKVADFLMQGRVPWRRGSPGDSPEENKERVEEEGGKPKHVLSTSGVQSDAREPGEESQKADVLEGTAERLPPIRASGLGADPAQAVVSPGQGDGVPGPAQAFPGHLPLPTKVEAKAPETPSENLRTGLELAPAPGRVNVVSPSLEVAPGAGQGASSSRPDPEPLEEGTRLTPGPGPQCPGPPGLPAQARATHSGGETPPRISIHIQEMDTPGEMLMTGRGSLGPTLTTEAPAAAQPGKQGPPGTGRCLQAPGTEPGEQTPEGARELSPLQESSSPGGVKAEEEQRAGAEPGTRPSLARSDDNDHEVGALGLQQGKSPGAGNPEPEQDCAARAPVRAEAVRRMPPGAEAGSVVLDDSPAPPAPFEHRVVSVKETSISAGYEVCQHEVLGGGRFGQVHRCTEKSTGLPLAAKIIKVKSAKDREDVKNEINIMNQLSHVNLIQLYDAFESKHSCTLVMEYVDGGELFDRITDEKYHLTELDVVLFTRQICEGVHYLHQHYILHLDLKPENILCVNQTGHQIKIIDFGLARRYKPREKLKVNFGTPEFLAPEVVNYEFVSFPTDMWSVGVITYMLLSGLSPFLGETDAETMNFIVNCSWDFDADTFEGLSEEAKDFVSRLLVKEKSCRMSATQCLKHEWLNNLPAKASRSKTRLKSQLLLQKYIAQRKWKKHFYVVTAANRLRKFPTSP
Chain of Delta-type opioid receptor (Homo sapiens) (P41143 whole entry): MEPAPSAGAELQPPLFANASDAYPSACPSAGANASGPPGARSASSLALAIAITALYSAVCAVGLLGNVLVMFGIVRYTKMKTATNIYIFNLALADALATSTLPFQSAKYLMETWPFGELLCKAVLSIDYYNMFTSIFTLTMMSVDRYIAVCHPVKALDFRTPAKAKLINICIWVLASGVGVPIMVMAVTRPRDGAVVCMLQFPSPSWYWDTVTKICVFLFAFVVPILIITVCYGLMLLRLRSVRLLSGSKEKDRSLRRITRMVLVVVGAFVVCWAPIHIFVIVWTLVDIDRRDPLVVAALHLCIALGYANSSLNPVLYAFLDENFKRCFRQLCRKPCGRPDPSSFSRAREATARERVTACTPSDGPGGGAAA
Chain of Beta-1 adrenergic receptor (P08588 whole entry, looked up): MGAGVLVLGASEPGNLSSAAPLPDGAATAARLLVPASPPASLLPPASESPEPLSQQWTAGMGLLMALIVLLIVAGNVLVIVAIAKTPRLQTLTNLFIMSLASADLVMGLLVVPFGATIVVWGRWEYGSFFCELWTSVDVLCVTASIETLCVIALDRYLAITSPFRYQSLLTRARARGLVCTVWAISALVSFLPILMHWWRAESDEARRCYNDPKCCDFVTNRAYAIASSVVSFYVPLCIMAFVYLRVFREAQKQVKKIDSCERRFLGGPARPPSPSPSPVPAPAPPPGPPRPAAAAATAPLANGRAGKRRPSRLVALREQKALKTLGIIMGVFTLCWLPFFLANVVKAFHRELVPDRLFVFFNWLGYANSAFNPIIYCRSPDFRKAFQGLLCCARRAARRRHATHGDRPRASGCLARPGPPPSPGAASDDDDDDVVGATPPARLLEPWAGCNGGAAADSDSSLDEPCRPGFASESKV
Chain of Sodium-dependent noradrenaline transporter (Homo sapiens) (P23975 whole entry): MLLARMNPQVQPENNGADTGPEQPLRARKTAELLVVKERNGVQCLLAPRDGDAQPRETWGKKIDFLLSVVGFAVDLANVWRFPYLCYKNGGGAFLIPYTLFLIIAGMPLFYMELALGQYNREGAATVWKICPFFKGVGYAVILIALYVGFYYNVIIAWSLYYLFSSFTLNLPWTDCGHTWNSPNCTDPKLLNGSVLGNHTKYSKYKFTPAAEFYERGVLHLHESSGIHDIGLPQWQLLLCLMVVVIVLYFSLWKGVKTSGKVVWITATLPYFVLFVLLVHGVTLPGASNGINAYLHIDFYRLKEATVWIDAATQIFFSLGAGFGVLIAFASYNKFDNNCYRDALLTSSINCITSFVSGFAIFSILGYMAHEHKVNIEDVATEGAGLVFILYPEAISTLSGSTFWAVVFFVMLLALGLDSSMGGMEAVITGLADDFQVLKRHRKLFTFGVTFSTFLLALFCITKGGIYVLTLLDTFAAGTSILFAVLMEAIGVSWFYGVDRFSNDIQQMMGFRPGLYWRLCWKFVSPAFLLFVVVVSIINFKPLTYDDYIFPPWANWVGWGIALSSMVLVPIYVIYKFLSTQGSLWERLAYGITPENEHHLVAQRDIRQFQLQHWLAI
Chain of Mu-type opioid receptor (Homo sapiens) (P35372 whole entry): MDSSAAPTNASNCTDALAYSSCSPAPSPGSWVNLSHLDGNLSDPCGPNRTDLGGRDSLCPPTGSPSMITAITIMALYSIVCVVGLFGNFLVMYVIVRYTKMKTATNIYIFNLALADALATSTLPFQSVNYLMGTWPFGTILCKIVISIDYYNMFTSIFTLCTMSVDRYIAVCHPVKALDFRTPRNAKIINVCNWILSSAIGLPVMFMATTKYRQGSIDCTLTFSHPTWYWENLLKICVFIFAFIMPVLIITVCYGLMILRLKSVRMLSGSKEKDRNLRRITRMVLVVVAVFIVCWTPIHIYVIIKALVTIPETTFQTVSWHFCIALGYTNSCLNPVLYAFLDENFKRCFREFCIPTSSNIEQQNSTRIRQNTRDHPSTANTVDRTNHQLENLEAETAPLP

CS(=O)(=O)NCC[C@H](NC(=O)c1cncc2c1cnn2-c1ccc(F)cc1)c1ccnc(S(C)(=O)=O)c1 [BI 9307]
inactive: residual activity [1] 100% | inhibition [2] 17.4% | residual activity [3] 100%

CS(=O)(=O)c1cc(C2(NC(=O)c3cncc4c3cnn4-c3ccc(F)cc3)CC2)ccn1 [BI 639667]
inactive: residual activity [4] 94% | residual activity [5] 99% | residual activity [6] 79% | residual activity [7] 82% | residual activity [8] 95% | residual activity [9] 91% | residual activity [10] 86% | residual activity [11] 86% | residual activity [12] 104% | residual activity [13] 89% | residual activity [14] 81%

From ChEMBL document CHEMBL4507278 (2021)
